According to article PMC4832243, “Discovery of Potent VEGFR-2 Inhibitors based on Furopyrimidine and Thienopyrimidne Scaffolds as Cancer Targeting Agents” (Scientific Reports, 2016):

Key:
Format in all cases: cell-based
[1] = test system: K-562; experiment: NCI 60 cell line panel (SRB), K-562; conditions: Homo sapiens, K562; K-562, Leukemia; single dose of 10 μM; read-out: Cell Growth Percent
[2] = test system: MOLT-4; experiment: NCI 60 cell line panel (SRB), MOLT-4; conditions: Homo sapiens; MOLT-4, Leukemia; single dose of 10 μM; read-out: Cell Growth Percent
[3] = test system: RPMI-8226; experiment: NCI 60 cell line panel (SRB), RPMI-8226; conditions: Homo sapiens; RPMI-8226, Leukemia; single dose of 10 μM; read-out: Cell Growth Percent
[4] = test system: SR; experiment: NCI 60 cell line panel (SRB), SR; conditions: Homo sapiens, Leukemia, single dose of 10 μM, read-out: Cell Growth Percent
[5] = test system: A549/ATCC; experiment: NCI 60 cell line panel (SRB), A549/ATCC; conditions: Homo sapiens, Non-Small Cell Lung Cancer, single dose of 10 μM, read-out: Cell Growth Percent
[6] = test system: EKVX; experiment: NCI 60 cell line panel (SRB), EKVX; conditions: Homo sapiens, Non-Small Cell Lung Cancer, single dose of 10 μM, read-out: Cell Growth Percent
[7] = test system: NCI-H226; experiment: NCI 60 cell line panel (SRB), NCI-H226; conditions: Homo sapiens; NCI-H226, Non-Small Cell Lung Cancer; single dose of 10 μM; read-out: Cell Growth Percent
[8] = test system: NCI-H322M; experiment: NCI 60 cell line panel (SRB), NCI-H322M; conditions: Homo sapiens, Non-Small Cell Lung Cancer, single dose of 10 μM, read-out: Cell Growth Percent
[9] = test system: NCI-H460; experiment: NCI 60 cell line panel (SRB), NCI-H460; conditions: Homo sapiens; NCI-H460, Non-Small Cell Lung Cancer; single dose of 10 μM; read-out: Cell Growth Percent
[10] = test system: NCI-H522; experiment: NCI 60 cell line panel (SRB), NCI-H522; conditions: Homo sapiens; NCI-H522, Non-Small Cell Lung Cancer; single dose of 10 μM; read-out: Cell Growth Percent
[11] = test system: HCT-15; experiment: NCI 60 cell line panel (SRB), HCT-15; conditions: Homo sapiens; HCT-15, Colon Cancer; single dose of 10 μM; read-out: Cell Growth Percent
[12] = test system: HT29; experiment: NCI 60 cell line panel (SRB), HT29; conditions: Homo sapiens, HT-29; HT29, Colon Cancer; single dose of 10 μM; read-out: Cell Growth Percent
[13] = test system: KM12; experiment: NCI 60 cell line panel (SRB), KM12; conditions: Homo sapiens; KM12, Colon Cancer; single dose of 10 μM; read-out: Cell Growth Percent
[14] = test system: SW-620; experiment: NCI 60 cell line panel (SRB), SW-620; conditions: Homo sapiens; SW-620, Colon Cancer; single dose of 10 μM; read-out: Cell Growth Percent
[15] = test system: SF-268; experiment: NCI 60 cell line panel (SRB), SF-268; conditions: Homo sapiens; SF-268, CNS Cancer; single dose of 10 μM; read-out: Cell Growth Percent
[16] = test system: SF-539; experiment: NCI 60 cell line panel (SRB), SF-539; conditions: Homo sapiens; SF-539, CNS Cancer; single dose of 10 μM; read-out: Cell Growth Percent
[17] = test system: SNB-19; experiment: NCI 60 cell line panel (SRB), SNB-19; conditions: Homo sapiens; SNB-19, CNS Cancer; single dose of 10 μM; read-out: Cell Growth Percent
[18] = test system: MALME-3M; experiment: NCI 60 cell line panel (SRB), MALME-3M; conditions: Homo sapiens, Melanoma, single dose of 10 μM, read-out: Cell Growth Percent
[19] = test system: M14; experiment: NCI 60 cell line panel (SRB), M14; conditions: Homo sapiens; M14, Melanoma; single dose of 10 μM; read-out: Cell Growth Percent
[20] = test system: SK-MEL-2; experiment: NCI 60 cell line panel (SRB), SK-MEL-2; conditions: Homo sapiens; SK-MEL-2, Melanoma; single dose of 10 μM; read-out: Cell Growth Percent
[21] = test system: SK-MEL-28; experiment: NCI 60 cell line panel (SRB), SK-MEL-28; conditions: Homo sapiens; SK-MEL-28, Melanoma; single dose of 10 μM; read-out: Cell Growth Percent
[22] = test system: UACC-62; experiment: NCI 60 cell line panel (SRB), UACC-62; conditions: Homo sapiens; UACC-62, Melanoma; single dose of 10 μM; read-out: Cell Growth Percent
[23] = test system: OVCAR-3; experiment: NCI 60 cell line panel (SRB), OVCAR-3; conditions: Homo sapiens; OVCAR-3, Ovarian Cancer; single dose of 10 μM; read-out: Cell Growth Percent
[24] = test system: OVCAR-8; experiment: NCI 60 cell line panel (SRB), OVCAR-8; conditions: Homo sapiens; OVCAR-8, Ovarian Cancer; single dose of 10 μM; read-out: Cell Growth Percent
[25] = test system: SK-OV-3; experiment: NCI 60 cell line panel (SRB), SK-OV-3; conditions: Homo sapiens; SK-OV-3, Ovarian Cancer; single dose of 10 μM; read-out: Cell Growth Percent
[26] = test system: A498; experiment: NCI 60 cell line panel (SRB), A498; conditions: Homo sapiens; A498, Renal Cancer; single dose of 10 μM; read-out: Cell Growth Percent
[27] = test system: ACHN; experiment: NCI 60 cell line panel (SRB), ACHN; conditions: Homo sapiens, Renal Cancer, single dose of 10 μM, read-out: Cell Growth Percent
[28] = test system: CAKI-1; experiment: NCI 60 cell line panel (SRB), CAKI-1; conditions: Homo sapiens; CAKI-1, Renal Cancer; single dose of 10 μM; read-out: Cell Growth Percent
[29] = test system: RXF 393; experiment: NCI 60 cell line panel (SRB), RXF 393; conditions: Homo sapiens; RXF 393, Renal Cancer; single dose of 10 μM; read-out: Cell Growth Percent
[30] = test system: UO-31; experiment: NCI 60 cell line panel (SRB), UO-31; conditions: Homo sapiens; UO-31, Renal Cancer; single dose of 10 μM; read-out: Cell Growth Percent
[31] = test system: PC-3; experiment: NCI 60 cell line panel (SRB), PC-3; conditions: Homo sapiens; PC-3, Prostate Cancer; single dose of 10 μM; read-out: Cell Growth Percent
[32] = test system: DU-145; experiment: NCI 60 cell line panel (SRB), DU-145; conditions: Homo sapiens; DU-145, Prostate Cancer; single dose of 10 μM; read-out: Cell Growth Percent
[33] = test system: MCF7; experiment: NCI 60 cell line panel (SRB), MCF7; conditions: Homo sapiens; MCF7, Breast Cancer; single dose of 10 μM; read-out: Cell Growth Percent
[34] = test system: MDA-MB-231/ATCC; experiment: NCI 60 cell line panel (SRB), MDA-MB-231/ATCC; conditions: Homo sapiens, Breast Cancer, single dose of 10 μM, read-out: Cell Growth Percent

| Compound | activity at 10 µM [1] [%] | activity at 10 µM [2] [%] | activity at 10 µM [3] [%] | activity at 10 µM [4] [%] | activity at 10 µM [5] [%] | activity at 10 µM [6] [%] | activity at 10 µM [7] [%] | activity at 10 µM [8] [%] | activity at 10 µM [9] [%] | activity at 10 µM [10] [%] | activity at 10 µM [11] [%] | activity at 10 µM [12] [%] | activity at 10 µM [13] [%] | activity at 10 µM [14] [%] | activity at 10 µM [15] [%] | activity at 10 µM [16] [%] | activity at 10 µM [17] [%] | activity at 10 µM [18] [%] | activity at 10 µM [19] [%] | activity at 10 µM [20] [%] | also measured |
| --- | --- | --- | --- | --- | --- | --- | --- | --- | --- | --- | --- | --- | --- | --- | --- | --- | --- | --- | --- | --- | --- |
| O=C(Nc1ccccc1)Nc1ccc(Nc2ncnc3sc4c(c23)CCCC4)cc1 [Compound 20a] | 99.7 | 89.4 | 99.2 | 97.8 | 73.8 | 102 | 89.8 | 106 | 104 | 92.9 | 110 | 96.1 | 102 | 106 | 100 | 104 | 95.9 | 102 | 103 | 114 | activity at 10 µM [21]: 116%; activity at 10 µM [22]: 97.8%; activity at 10 µM [23]: 103%; activity at 10 µM [24]: 107%; activity at 10 µM [25]: 99.5%; activity at 10 µM [26]: 83.3%; activity at 10 µM [27]: 101%; activity at 10 µM [28]: 100%; activity at 10 µM [29]: 102%; activity at 10 µM [30]: 71.5%; activity at 10 µM [31]: 89.8%; activity at 10 µM [32]: 109%; activity at 10 µM [33]: 96.2%; activity at 10 µM [34]: 91.6% |
| Cc1cccc(NC(=O)Nc2ccc(Oc3ncnc4sc5c(c34)CCCC5)cc2)c1 [Compound 21b] | 57.9 | 58.1 | 58.9 | 55.8 | 66.5 | 62.8 | 73.1 | 91.2 | 65.2 | 16.1 | 74.9 | 65.6 | 37.3 | 103 | 72.6 | 59.3 | 72 | 104 | 68.2 | 99.7 | activity at 10 µM [21]: 91.6%; activity at 10 µM [22]: 75.7%; activity at 10 µM [23]: 63.5%; activity at 10 µM [24]: 85.9%; activity at 10 µM [25]: 79.7%; activity at 10 µM [26]: 68.3%; activity at 10 µM [27]: 73.4%; activity at 10 µM [28]: 86%; activity at 10 µM [29]: 79%; activity at 10 µM [30]: 59%; activity at 10 µM [31]: 37.5%; activity at 10 µM [32]: 81.3%; activity at 10 µM [33]: 44.1%; activity at 10 µM [34]: 81.9% |
| CCOC(=O)c1c(C)oc2ncnc(Nc3ccc(C(=O)Nc4ccc(OC)cc4)cc3)c12 [Compound 14b] | 107 | 92.3 | 91.3 | 74.6 | 93.3 | 91.1 | 94.2 | 112 | 97 | 84 | 88.5 | 81.1 | 96.1 | 112 | 101 | 63.8 | 108 | 120 | 101 | 107 | activity at 10 µM [21]: 95.2%; activity at 10 µM [22]: 93.4%; activity at 10 µM [23]: 110%; activity at 10 µM [24]: 98.9%; activity at 10 µM [25]: 94.1%; activity at 10 µM [26]: 75.3%; activity at 10 µM [27]: 95.2%; activity at 10 µM [28]: 96.6%; activity at 10 µM [29]: 92%; activity at 10 µM [30]: 94.3%; activity at 10 µM [31]: 83.6%; activity at 10 µM [32]: 97.1%; activity at 10 µM [33]: 95.6%; activity at 10 µM [34]: 91% |
| O=C(Nc1ccc(Cl)cc1)Nc1ccc(Oc2ncnc3sc4c(c23)CCCC4)cc1 [Compound 21d] | 84.2 | 72 | 68.8 | 72.4 | 66.6 | 82.9 | 74 | 103 | 82.1 | 47.5 | 91.6 | 86.4 | 69.1 | 97.7 | 87 | 70.9 | 79.5 | 98.9 | 87 | 104 | activity at 10 µM [21]: 92.6%; activity at 10 µM [22]: 73.2%; activity at 10 µM [23]: 85.8%; activity at 10 µM [24]: 94.7%; activity at 10 µM [25]: 90.8%; activity at 10 µM [26]: 70.1%; activity at 10 µM [27]: 95.4%; activity at 10 µM [28]: 95.4%; activity at 10 µM [29]: 87.7%; activity at 10 µM [30]: 71.2%; activity at 10 µM [31]: 57.6%; activity at 10 µM [32]: 91.9%; activity at 10 µM [33]: 83.2%; activity at 10 µM [34]: 70.1% |
